Results taken from the supplement of paper PMC10307832.

Legend:
Assay in all cases: relative viability (nuclei count vs DMSO), 5 days (fraction); higher = more cells survive
YM155 + Crizotinib = compound: COCC[n+]1c2c(n(Cc3cnccn3)c1C)C(=O)c1ccccc1C2=O [YM155] + C[C@@H](Oc1cc(-c2cnn(C3CCNCC3)c2)cnc1N)c1c(Cl)ccc(F)c1Cl [Crizotinib] (partner 1 µM)
How it was run: (§1)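 After 5 days of treatment, lung cancer cells in 1536-well plates were fixed and stained in a single step (final 0.05% Triton X-100, 1% formaldehyde, 1 ug/ml Hoechst) and their nuclei counted on 4× images. Treatment had been applied by pin tool the day after seeding as one drug alone or as a fixed anchor-drug dose with five library-drug doses (not always all listed) in √10 steps. Relative viability is the nuclei count of treated wells divided by that of vehicle wells, and values are medians of duplicate plates.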

YM155 + Olaparib = compound: COCC[n+]1c2c(n(Cc3cnccn3)c1C)C(=O)c1ccccc1C2=O [YM155] + O=C(c1cc(Cc2n[nH]c(=O)c3ccccc23)ccc1F)N1CCN(C(=O)C2CC2)CC1 [Olaparib] (partner 8 µM)
How it was run: as §1

Quizartinib + Linsitinib = compound: CC(C)(C)c1cc(NC(=O)Nc2ccc(-c3cn4c(n3)sc3cc(OCCN5CCOCC5)ccc34)cc2)no1 [Quizartinib] + C[C@]1(O)C[C@@H](c2nc(-c3ccc4ccc(-c5ccccc5)nc4c3)c3c(N)nccn32)C1 [Linsitinib] (partner 1 µM)
How it was run: as §1

YM155 + Pemetrexed = compound: COCC[n+]1c2c(n(Cc3cnccn3)c1C)C(=O)c1ccccc1C2=O [YM155] + Nc1nc2[nH]cc(CCc3ccc(C(=O)N[C@@H](CCC(=O)O)C(=O)O)cc3)c2c(=O)[nH]1 [Pemetrexed] (partner 0.2 µM)
How it was run: as §1

Row | Cell Line | relative viability (YM155 + Crizotinib; first compound 0.002 µM) | relative viability (YM155 + Crizotinib; first compound 0.006325 µM) | relative viability (YM155 + Crizotinib; first compound 0.02 µM) | relative viability (YM155 + Crizotinib; first compound 0.06325 µM) | relative viability (YM155 + Olaparib; first compound 0.002 µM) | relative viability (YM155 + Olaparib; first compound 0.006325 µM) | relative viability (YM155 + Olaparib; first compound 0.02 µM) | relative viability (YM155 + Olaparib; first compound 0.06325 µM) | relative viability (Quizartinib + Linsitinib; first compound 0.001 µM) | relative viability (Quizartinib + Linsitinib; first compound 0.003162 µM) | relative viability (Quizartinib + Linsitinib; first compound 0.01 µM) | relative viability (Quizartinib + Linsitinib; first compound 0.03162 µM) | relative viability (Quizartinib + Linsitinib; first compound 0.1 µM) | relative viability (YM155 + Pemetrexed; first compound 0.002 µM) | relative viability (YM155 + Pemetrexed; first compound 0.006325 µM) | relative viability (YM155 + Pemetrexed; first compound 0.02 µM) | relative viability (YM155 + Pemetrexed; first compound 0.06325 µM)
1 | EBC-1 | 0.186 | 0.193 | 0.206 | 0.202 | 0.819 | 0.743 | 0.799 | 0.622 | 0.801 | 0.972 | 0.956 | 0.989 | 0.948 |  |  |  | 
2 | EKVX | 0.834 | 1.04 | 0.919 | 0.839 | 0.912 | 0.875 | 0.854 | 0.401 | 0.92 | 1 | 1.02 | 0.954 | 1.1 | 0.431 | 0.437 | 0.399 | 0.234
3 | EMC-BAC-2 | 0.786 | 0.765 | 0.758 | 0.7 | 0.444 | 0.44 | 0.392 | 0.301 | 0.712 | 0.748 | 0.815 | 0.789 | 0.838 | 0.456 | 0.486 | 0.463 | 0.424
4 | EPLC-272H | 0.692 | 0.814 | 0.952 | 1.06 | 0.825 | 0.891 | 0.722 | 0.811 | 1.01 | 1.38 | 1.32 | 1.32 | 1.14 | 0.327 | 0.309 | 0.316 | 0.319
5 | H3255 | 0.836 | 0.874 | 0.87 | 0.874 | 0.577 | 0.581 | 0.578 | 0.508 | 0.854 | 0.826 | 1.01 | 0.896 | 1.06 | 0.587 | 0.627 | 0.565 | 0.566
6 | HARA | 1.04 | 1.13 | 1.09 | 0.995 |  | 0.815 | 0.76 | 0.935 | 0.585 | 0.906 | 0.953 | 0.958 | 0.974 |  | 0.235 | 0.228 | 0.268
7 | HCC-15 | 0.747 | 0.887 | 0.815 | 0.711 | 0.668 | 0.763 | 0.696 | 0.666 | 0.799 | 0.823 | 0.874 | 0.828 | 0.814 | 0.239 | 0.229 | 0.23 | 0.242
8 | HCC-44 | 0.805 | 0.755 | 0.845 | 0.776 | 0.969 | 1.03 | 0.992 | 1.04 | 0.639 | 0.647 | 0.695 | 0.69 | 0.632 | 0.615 | 0.722 | 0.624 | 0.643
9 | HCC-78 | 0.328 | 0.322 | 0.325 | 0.371 | 0.882 | 0.865 | 0.807 | 1 | 0.471 | 0.4 | 0.486 | 0.451 | 0.514 | 0.896 | 0.954 | 0.935 | 0.913
10 | HCC-366 | 0.519 | 0.478 | 0.612 | 0.401 | 0.368 | 0.329 | 0.375 | 0.275 | 0.501 | 0.695 | 0.656 | 0.615 | 0.554 | 0.161 | 0.187 | 0.158 | 0.165
